According to US4434101A, “Inhibitors of SRS-synthesis” (Hoffmann-La Roche Inc., priority 1981, dated 1984):

Tested on: SRS-A synthesis in rat peritoneal cells
Experiment: Inhibition of the In Vitro Synthesis of SRS-A in Rat Peritoneal Cells
Assay type: cell-based, rat (male Sprague-Dawley)
Conditions: for inhibition at 10 µM: mean percent inhibition of ionophore A23187-induced SRS-A synthesis, 10 min preincubation at 37° C., p<0.001, SRS-A quantitated by guinea pig ileum bioassay, read-out: % Inhibition at 10μ M; for IC50: from plot of mean percent inhibition versus drug concentration, ionophore A23187-induced SRS-A synthesis
Text: Inhibition of the In Vitro Synthesis of SRS-A in Rat Peritoneal Cells
To study the effect of drugs on SRS-A synthesis in rat peritoneal cells, these cells (including mast cells, monocytes, eosinophils and neutrophils)were isolated from male Sprague-Dawley rats (Charles River Laboratories) weighing 180-220 g by the lavage procedure described by Herzig, D. G. and Dusner, E. J. Journal of Pharmacology and Experimental Therapeutics, 194, 457-460 (1975) with the exception that Hanks balanced salt solution used in these experiments was adjusted to pH 6.9 with 5% (V/V) of 0.1 M aqueous phosphate buffer and contained 50 mg/ml sodium heparin. After removal from the peritoneal cavity of rats, the cells were subsequently isolated by centrifugation at 400×gravity for 10 minutes at 4° C. and resuspended to a concentration of about 2,000,000 cells per ml in Hanks buffer.
Samples for evaluation were prepared by adding various concentrations of test drugs to 2 ml aliquots of the resuspended cells in Hanks buffer. The 2 ml samples used for control contained 2 ml aliquots of resuspended cells in Hanks buffer without drugs. All of the above samples (2 ml final volume) were preincubated at 37° C. for 10 minutes in the presence of varying concentrations of test drug prior to challenge with […] ionophore A23187. This ionophore is disclosed in Burka and Flower, Br. J. Pharmacology 65: 35-41 (1979). Antibiotic A23187 was used as a probe for the study of calcium and function in biological systems. After ionophore challenge, SRS-A was synthesized in the samples by the cells for 10 minutes (at 37° C.) after which this synthesis was terminated by placing the samples in a boiling water bath for 10 minutes followed by centrifugation at 2,000×g (10 minutes) at 4° C. to remove coagulated protein and cellular debris. The SRS-A present in the resulting supernatants was quantitated by a bioassay using a guinea pig ileum as described in Orange, and Austen, Adv. Immunol, 10: 105-144 (1969). For this bioassay, a 1.5 cm segment of ileum was removed from animals weighing 300 to 400 g and resuspended in an organ bath containing 10 ml of Tyrodes solution with 10^-6 M atropine sulfate and 10^-6 M pyrilamine maleate. The bath was maintained at 37° C. and aereated with a mixture of 95% O2 and 5% CO2. The concentration of SRS-A in the experimental samples was determined by a comparison of isotonic contraction responses elicited by the samples with those obtained with varying amounts of an SRS-A standard solution prepared from chopped guinea pig lung as disclosed in Hitchcock, M. J. Pharmacol. Exp. Ther. 207: 630-640 (1978) and quantitated by the procedures of Orange, R. R. and Austen, K. F. Adv. Immunol. 10: 105-144 (1969) against histamine (1 unit of SRS-A being that amount which gives a contractie response similar to that of […] of histamine). In the absence of drug, the ionophore A23187-induced SRS-A synthesis varied between 40 to 50 units of SRS-A per 10^6 cells. In the presence of increasing concentrations of test drug, there was a concentration-related decrease in SRS-A synthesis.
The mean percent inhibition [formula] at each concentration of the various test drugs was calculated. The concentration of test drug which inhibits the synthesis of SRS-A by 50% (IC50) was determined for each test drug from a plot of the mean percent inhibition versus drug concentration. The difference of units of SRS-A in the test sample used in the fraction given above was obtained by subtracting the units of SRS-A in the control from the actual measurement of the units of SRS-A in the sample.

Row | SMILES | inhibition at 10 µM [%] | IC50 [µM]
1 | CCCCCCCCCCC/C=C\C(C)(C)/C=C\CCCC(=O)O [(Z,Z)-7,7-dimethyl-5,8-eicosadienoic acid] | 100 | < 10
2 | CCCCCCCC/C=C\C/C=C\C(C)(C)/C=C\CCCC(=O)O [(all Z)-7,7-dimethyl-5,8,11-eicosatrienoic acid] | 100 | < 10
3 | CCCCC/C=C\C/C=C\C/C=C\C(C)(C)/C=C\CCCC(=O)O [(all-Z)-7,7-dimethyleicosa-5,8,11,14-tetraenoic acid] | 100 | 1 to 3
